Assay results: ChEMBL document CHEMBL1201862, “PubChem BioAssay data set” (2004)
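Method: 48-hour compound exposure of cells in 96-well plates, five concentrations, linear interpolation of endpoints. The concentration for 50% growth inhibition is given as GI50.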 The source made the active and inactive calls. Cut-off read from the data, not from the text of the source: active = GI50 up to about 1.1 µM and inactive = higher.

Key:
Assay in all cases: NCI tumour cell line growth inhibition, 48 h
[1] = test system: UACC-62
[2] = test system: RXF 393
[3] = test system: K562
[4] = test system: COLO 205
[5] = test system: UACC-257
[6] = test system: HOP-18
[7] = test system: SF-268
[8] = test system: HT-29
[9] = test system: OVCAR-4
[10] = test system: ACHN
[11] = test system: XF498
[12] = test system: M19-MEL
[13] = test system: LOX IMVI
[14] = test system: OVCAR-3
[15] = test system: HOP-62
[16] = test system: TK-10
[17] = test system: NCI-H460
[18] = test system: HCT-15
[19] = test system: IGROV-1
[20] = test system: KM12
[21] = test system: SF-295
[22] = test system: Malme-3M
[23] = test system: A549
[24] = test system: SNB-75
[25] = test system: KM-20L2
[26] = test system: SN12C
[27] = test system: CAKI-1
[28] = test system: DMS-273
[29] = test system: 786-0
[30] = test system: SF-539
[31] = test system: SNB-19
[32] = test system: SK-MEL-5
[33] = test system: SW-620
[34] = test system: U-251
[35] = test system: HCT-116
[36] = test system: SK-MEL-28
[37] = test system: SNB-78
[38] = test system: A498
[39] = test system: SK-MEL-2
[40] = test system: OVCAR-5
[41] = test system: OVCAR-8
[42] = test system: DLD-1
[43] = test system: SR
[44] = test system: NCI-H23
[45] = test system: HOP-92
[46] = test system: RPMI-8226
[47] = test system: EKVX
[48] = test system: DU-145
[49] = test system: PC-3
[50] = test system: HL-60
[51] = test system: M14
[52] = test system: CCRF-CEM
[53] = test system: SK-OV-3
[54] = test system: MOLT-4
[55] = test system: BT-549
[56] = test system: MDA-MB-435
[57] = test system: UO-31
[58] = test system: MDA-MB-231
[59] = test system: Hs-578T
[60] = test system: DMS-114
[61] = test system: NCI-H226
[62] = test system: T47D
[63] = test system: HCC 2998
[64] = test system: NCI/ADR-RES
[65] = test system: NCI-H522
[66] = test system: MCF7
[67] = test system: MDA-N

With COc1ccc(C(CCC(C)=O)C(=O)O)cc1OC (centres undefined) the GI50 [1] was > 100 µM (inactive), the GI50 [2] was > 100 µM (inactive) and the GI50 [3] was > 100 µM (inactive). The GI50 [4] was > 100 µM (inactive), the GI50 [5] was > 100 µM (inactive) and the GI50 [6] was > 100 µM (inactive). The GI50 [7] was > 100 µM (inactive), the GI50 [8] was > 100 µM (inactive) and the GI50 [9] was > 100 µM (inactive). The GI50 [10] was > 100 µM (inactive), the GI50 [11] was > 100 µM (inactive) and the GI50 [12] was > 100 µM (inactive). The GI50 [13] was > 100 µM (inactive), the GI50 [14] was > 100 µM (inactive) and the GI50 [15] was > 100 µM (inactive). For the same compound, the GI50 [16] was > 100 µM (inactive), the GI50 [17] was > 100 µM (inactive) and the GI50 [18] was > 100 µM. For the same compound, the GI50 [19] was > 100 µM (inactive), the GI50 [20] was > 100 µM (inactive) and the GI50 [21] was > 100 µM (inactive). For the same compound, the GI50 [22] was > 100 µM (inactive), the GI50 [23] was > 100 µM (inactive) and the GI50 [24] was > 100 µM (inactive). The GI50 [25] was > 100 µM (inactive), the GI50 [26] was > 100 µM (inactive) and the GI50 [27] was > 100 µM (inactive). The GI50 [28] was > 100 µM (inactive), the GI50 [29] was > 100 µM (inactive) and the GI50 [30] was > 100 µM (inactive). For the same compound, the GI50 [31] was > 100 µM (inactive), the GI50 [32] was > 100 µM (inactive) and the GI50 [33] was > 100 µM (inactive). For the same compound, the GI50 [34] was > 100 µM (inactive), the GI50 [35] was > 100 µM (inactive) and the GI50 [36] was > 100 µM (inactive). For the same compound, the GI50 [37] was > 100 µM (inactive), the GI50 [38] was > 100 µM (inactive) and the GI50 [39] was > 100 µM (inactive). For the same compound, the GI50 [40] was > 100 µM (inactive), the GI50 [41] was > 100 µM (inactive) and the GI50 [42] was > 100 µM (inactive). For the same compound, the GI50 [43] was > 100 µM (inactive), the GI50 [44] was > 100 µM (inactive) and the GI50 [45] was > 100 µM (inactive). For the same compound, the GI50 [46] was > 100 µM (inactive) and the GI50 [47] was > 100 µM (inactive).
With O=C1NC(=O)C2C3C=CC(C12)C1C2C(=O)NC(=O)C2C31 (centres undefined) the GI50 [48] was > 250 µM (inactive), the GI50 [1] was 107 µM (inactive) and the GI50 [2] was 220 µM (inactive). The GI50 [3] was 234 µM (inactive), the GI50 [4] was 82.4 µM (inactive) and the GI50 [5] was 238 µM (inactive). The GI50 [49] was 217 µM (inactive), the GI50 [6] was 222 µM (inactive) and the GI50 [7] was > 250 µM (inactive). The GI50 [8] was 177 µM (inactive), the GI50 [50] was 183 µM (inactive) and the GI50 [9] was 223 µM (inactive). The GI50 [10] was > 250 µM (inactive), the GI50 [11] was 143 µM (inactive) and the GI50 [12] was 177 µM (inactive). For the same compound, the GI50 [51] was 240 µM (inactive), the GI50 [13] was 241 µM (inactive) and the GI50 [14] was 242 µM (inactive). For the same compound, the GI50 [52] was 54.8 µM (inactive), the GI50 [15] was 74.3 µM (inactive) and the GI50 [16] was > 250 µM (inactive). The GI50 [17] was 53.7 µM (inactive), the GI50 [18] was 237 µM and the GI50 [53] was 98.6 µM (inactive). The GI50 [19] was 186 µM (inactive), the GI50 [54] was > 100 µM (inactive) and the GI50 [55] was > 250 µM (inactive). The GI50 [20] was 220 µM (inactive), the GI50 [56] was > 1000 µM (inactive) and the GI50 [21] was 174 µM (inactive). For the same compound, the GI50 [22] was 187 µM (inactive), the GI50 [23] was 93.8 µM (inactive) and the GI50 [57] was 211 µM (inactive). The GI50 [24] was 197 µM (inactive), the GI50 [25] was 208 µM (inactive) and the GI50 [58] was > 250 µM (inactive). For the same compound, the GI50 [59] was 100 µM (inactive), the GI50 [26] was 192 µM (inactive) and the GI50 [27] was 203 µM (inactive). The GI50 [28] was 116 µM (inactive), the GI50 [60] was 125 µM (inactive) and the GI50 [29] was 682 µM (inactive). The GI50 [61] was 177 µM (inactive), the GI50 [30] was 191 µM (inactive) and the GI50 [31] was 149 µM (inactive). The GI50 [32] was 195 µM (inactive), the GI50 [62] was > 250 µM (inactive) and the GI50 [33] was 167 µM (inactive). The GI50 [34] was 203 µM (inactive), the GI50 [35] was 211 µM (inactive) and the GI50 [63] was 221 µM (inactive). The GI50 [36] was 222 µM (inactive), the GI50 [64] was > 250 µM (inactive) and the GI50 [37] was 204 µM (inactive). For the same compound, the GI50 [38] was 158 µM (inactive), the GI50 [39] was 173 µM (inactive) and the GI50 [65] was 151 µM (inactive). The GI50 [40] was > 250 µM (inactive), the GI50 [41] was 203 µM (inactive) and the GI50 [42] was 228 µM (inactive). For the same compound, the GI50 [43] was 135 µM (inactive), the GI50 [44] was 245 µM (inactive) and the GI50 [66] was 164 µM (inactive). The GI50 [45] was 128 µM (inactive), the GI50 [46] was 185 µM (inactive) and the GI50 [67] was 701 µM (inactive). The GI50 [47] was 234 µM (inactive).
